Measured values: US20040033517A1, “Compositions and methods relating to endothelial cell signaling using the protease activated receptor (PAR1)” (priority 2002, published 2004)
Read-outs that look alike come from different tables or passages of the source. Ends that are not written are not given here.

Assays:
[1] = system: human umbilical vein endothelial cells HUVEC-C; type: cell-based
From the text: Microarray Analysis. […] Total RNA was isolated followed by reverse transcription. Purified double stranded cDNA was in vitro transcribed in the presence of biotinylated dUTP and dCTP, fragmented cRNA was hybridized to the HG-U95Av2 array (Affymetrix, Santa Clara, Calif.), followed by staining with streptavidin-phycoerythrin. Arrays were scanned and analyzed using GeneChip3.1 software. […] An average fold-induction for the three independent experiments was obtained by calculating the means of the logarithm of the individual fold-increases for each agonist.

primary HUVEC = assay: TaqMan real-time RT-PCR of gene induction in primary HUVEC; type: cell-based, human; details: primary endothelial cells, quantitative PCR, FIG. 3A
Procedure: TaqMan Real Time PCR. For TaqMan (Applied Biosystems) real-time RT-PCR 4 μg total cellular RNA from stimulated primary HUVEC was reverse transcribed followed by RNAse treatment using the Superscript Kit (Invitrogen). TaqMan probes were custom designed for genes of interests. All samples were normalized with human GAPDH probes and primers obtained from Applied Biosystems.

[2] = HUVEC-C, 90 min, genes represented in FIG. 2 A-C
[3] = HUVEC-C, 90 min, higher variability, PAR1 enhanced (<1.3 fold with PAR2 agonist)
[4] = HUVEC-C, 90 min, higher variability, PAR2 enhanced (<1.3 fold with PAR1 agonist)
[5] = HUVEC-C, 90 min, higher variability, genes not induced by APC (<1.3 fold with APC)

TFLLRNPNDK [PAR1]
Average fold induction, AKAP12 U81607 A-KINASE ANCHOR PROTEIN 12, GRAVIN [1]: 1.39 fold | Average fold induction, BCL2A1 U27467 BCL2 RELATED PROTEIN A1, BFL-1 [1]: 2.04 fold | Average fold induction, BIRC3 U45878 HUMAN INHIBITOR OF APOPTOSIS PROTEIN (IAP) 1 [1]: 2.39 fold | Average fold induction, DUSP1 X68277 DUAL-SPECIFICITY PHOSPHATASE 1 [1]: 2.05 fold | Average fold induction, DUSP5 U15932 DUAL-SPECIFICITY PHOSPHATASE 5 [1]: 2.93 fold | Average fold induction, GADD45B AF078077 GROWTH ARREST- AND DNA DAMAGE-INDUCIBLE GENE GADD45, BETA [1]: 1.26 fold | Average fold induction, IER3 S81914 IMMEDIATE-EARLY RESPONSE 3 [1]: 1.30 fold | Average fold induction, NAB1 AF045451 NGFIA-BINDING PROTEIN [1]: 1.49 fold | Average fold induction, NFKBIA M69043 NUCLEAR FACTOR OF KAPPA LIGHT CHAIN GENE ENHANCER IN B CELLS INHIBITOR, ALPHA [1]: 1.38 fold | Average fold induction, TNFAIP3 M59465 TUMOR NECROSIS FACTOR-ALPHA-INDUCED PROTEIN 3, A20 [1]: 1.39 fold | Average fold induction, ZFP36 M92843 ZINC FINGER PROTEIN 36, TRISTETRAPROLIN (TTP) [1]: 1.98 fold | Average Induction, A1288757 qm11h01.x1 Homo sapiens cDNA [1, 2]: 1.8 fold | Average Induction, A1670788 tz10c02.x1 Homo sapiens cDNA [1, 2]: 1.5 fold | Average Induction, A1985272 ws06b05.x1 Homo sapiens cDNA [1, 2]: 1.3 fold | Average Induction, A8022718 Homo sapiens m.RNA for DEPP (decidual protein induced by progesterone) [1, 2]: 1.3 fold | Average Induction, AB004066 Homo sapiens mRNA for DEC1 [1, 2]: 1.5 fold | Average Induction, AB014569 Homo sapiens mRNA for K1AA0669 protein [1, 2]: 1.3 fold | Average Induction, AF017786 Homo sapiens phosphatidic acid phosphohydrolase homolog (Dri42) [1, 2]: 1.6 fold | Average Induction, AF022375 Homo sapiens vascular endothelial growth factor mRNA [1, 2]: 1.5 fold | Average Induction, AF039843 Homo sapiens Sprouty 2 (SPRY2) mRNA [1, 2]: 1.6 fold | Average Induction, AF045451 Homo sapiens transcriptional regulatory protein p54 [1, 2]: 1.5 fold | Average Induction, AF050110 Homo sapiens TGFb inducible early protein and early growth response protein alpha genes [1, 2]: 1.7 fold | Average Induction, AF054182 Homo sapiens mitochondrial processing peptidase beta-subunit mRNA [1, 2]: 1.8 fold | Average Induction, AF068197 Homo sapiens BCE-1 mRNA [1, 2]: 1.5 fold | Average Induction, AF078077 Homo sapiens growth arrest and DNA-damage-inducible protein GADD45beta [1, 2]: 1.3 fold | Average Induction, AJ005821 Homo sapiens mRNA for X-like 1 protein [1, 2]: 2.4 fold | Average Induction, AL023584 Human DNA sequence from clone 67K17 on chromosome 6q24.1-24.3. [1, 2]: 1.8 fold | Average Induction, AL031432 Human DNA sequence from clone 465N24 on chromosome 1p35.1-36.13. [1, 2]: 1.9 fold | Average Induction, AL050078 Homo sapiens mRNA; cDNA DKFZp566G0746 [1, 2]: 1.6 fold | Average Induction, AL096858 Novel human gene mapping to chomosome 1 [1, 2]: 1.3 fold | Average Induction, Cluster Incl M22489 Human bone morphogenetic protein 2A (BMP-2A) [1, 2]: 2.4 fold | Average Induction, Cluster Incl U12767 Human mitogen induced nuclear orphan receptor (MINOR) [1, 2]: 2.4 fold | Average Induction, D15050 Human mRNA for transcription factor AREB6 [1, 2]: 2.1 fold | Average Induction, D50917 Human mRNA for KIAA0127 gene [1, 2]: 1.4 fold | Average Induction, D78579 Homo sapiens mRNA for neuron derived orphan receptor [1, 2]: 2.6 fold | Average Induction, D86181 Homo sapiens DNA for galactocerebrosidase [1, 2]: 1.9 fold | Average Induction, Guanine Nucleotide Exchange Factor 2 [1, 2]: 1.4 fold | Average Induction, J02931 Human placental tissue factor (two forms) mRNA [1, 2]: 3.0 fold | Average Induction, J04076 Human early growth response 2 protein (EGR2) mRNA [1, 2]: 2.0 fold | Average Induction, J04111 Human c-jun proto oncogene (JUN) [1, 2]: 1.7 fold | Average Induction, L05072 Homo sapiens interferon regulatory factor 1 gene [1, 2]: 1.9 fold | Average Induction, L19871 Human activating transcription factor 3 (ATF3) [1, 2]: 2.5 fold | Average Induction, L43821 Homo sapiens enhancer of filamentation (HEF1) mRNA [1, 2]: 1.4 fold | Average Induction, M22489/FEATURE Human bone morphogenetic protein 2A (BMP-2A) [1, 2]: 2.3 fold | Average Induction, M26683 Human interferon gamma treatment inducible mRNA [1, 2]: 1.6 fold | Average Induction, M28211 Homo sapiens GTP-binding protein (RAB4) mRNA [1, 2]: 2.0 fold | Average Induction, M28225 Human JE gene encoding a monocyte secretory protein [= MCP-1] [1, 2]: 2.1 fold | Average Induction, M29039 Human transactivator (jun-B) gene [1, 2]: 2.8 fold | Average Induction, M30474 Human kidney gamma-glutamyl transpeptidase type II mRNA [1, 2]: 2.7 fold | Average Induction, M31516 Human decay-accelerating factor mRNA [1, 2]: 1.7 fold | Average Induction, M36820 Human cytokine (GRO-beta) mRNA [1, 2]: 2.1 fold | Average Induction, M59465 Human tumor necrosis factor alpha inducible protein A20 mRNA [1, 2]: 1.4 fold | Average Induction, M60278 Human heparin-binding EGF-like growth factor mRNA [1, 2]: 3.6 fold | Average Induction, M60721 Human homeobox gene [1, 2]: 2.8 fold | Average Induction, M69043 Homo sapiens MAD-3 mRNA encoding 1kB-like activity [1, 2]: 1.4 fold | Average Induction, M92843 H.sapiens zinc finger transcriptional regulator mRNA [1, 2]: 2.0 fold | Average Induction, S81439 EGR alpha=early growth response gene alpha [1, 2]: 1.8 fold | Average Induction, S81914 IEX-1=radiation-inducible immediate-early gene [1, 2]: 1.3 fold | Average Induction, U04636 Human cyclooxygenase-2 (hCox-2) gene [1, 2]: 1.3 fold | Average Induction, U07802 Human Tis1 1d gene [1, 2]: 1.5 fold | Average Induction, U08015 Human NF-ATc mRNA [1, 2]: 1.4 fold | Average Induction, U12767/FEATURE Human mitogen induced nuclear orphan receptor (MINOR) [1, 2]: 4.9 fold | Average Induction, U15932 Human dual-specificity protein phosphatase [1, 2]: 2.9 fold | Average Induction, U25997 Homo sapiens stanniocalcin precursor (STC) mRNA [1, 2]: 1.6 fold | Average Induction, U43142 Human vascular endothelial growth factor related protein VRP [1, 2]: 1.4 fold | Average Induction, U59863 Human TRAF-interacting protein I-TRAF mRNA [1, 2]: 1.3 fold | Average Induction, U75697 Human transcription regulator RPD3-2B mRNA [1, 2]: 2.7 fold | Average Induction, U79259 Human clone 23945 mRNA [1, 2]: 1.5 fold | Average Induction, U81607 Homo sapiens gravin mRNA [1, 2]: 1.4 fold | Average Induction, W27545 32c4 Homo sapiens cDNA [1, 2]: 1.2 fold | Average Induction, X51345 Human jun-B mRNA for JUN-B protein [1, 2]: 1.8 fold | Average Induction, X63741 H.sapiens pilot mRNA [1, 2]: 1.9 fold | Average Induction, X68277 H.sapiens CL 100 mRNA for protein tyrosine phosphatase [1, 2]: 2.1 fold | Average Induction, X75918 H.sapiens mRNA for NOT [1, 2]: 2.3 fold | Average Induction, X89066 H.sapiens mRNA for TRPC1 protein [1, 2]: 2.6 fold | Average Induction, X94216 H.sapiens mRNA for VEGF-C protein [1, 2]: 1.4 fold | Average Induction, Y00630 Human mRNA for Arg-Serpin (plasminogen activator-inhibitor 2, PAI-2) [1, 2]: 2.2 fold | Average Induction, Z25821 H.sapiens gene for mitochondrial dodecenoyl-CoA delta-isomerase [1, 2]: 1.1 fold | Average Induction, Z48054 H.sapiens mRNA for peroxisomal targeting signal 1 (SKL type) receptor [1, 2]: 2.0 fold | Average Induction, L13740 Human TR3 orphan receptor mRNA ([1]; HUVEC-C, 90 min, genes represented in FIG. 2 A-C, first probe set): 4.8 fold | Average Induction, L13740 Human TR3 orphan receptor mRNA ([1]; HUVEC-C, 90 min, genes represented in FIG. 2 A-C, second probe set): 4.7 fold | Average Induction, A1186701 qe82d12.x1 Homo sapiens cDNA [1, 3]: 1.9 fold | Average Induction, A1953789 wx69d10.x1 Homo sapiens cDNA [1, 3]: 1.3 fold | Average Induction, AF024710 Homo sapiens vascular endothelial growth factor (VEGF) [1, 3]: 1.4 fold | Average Induction, AL035297 H.sapiens gene from PAC 747L4 [1, 3]: 1.7 fold | Average Induction, M22299 Human T-plastin polypeptide mRNA [1, 3]: 1.6 fold | Average Induction, U35735 Human RACH1 (RACH1) mRNA [1, 3]: 1.8 fold | Average Induction, U87460 Human putative endothelin receptor type B-like protein mRNA [1, 3]: 1.4 fold | Average Induction, A1038821 ox96d03.x1 Homo sapiens cDNA [1, 4]: 1.2 fold | Average Induction, AC004475 Homo sapiens chromosome 19, cosmid F23858 [1, 4]: 1.2 fold | Average Induction, AL049354 Homo sapiens mRNA; cDNA DKFZp566E183 [1, 4]: 1.1 fold | Average Induction, L38696 Homo sapiens autoantigen p542 mRNA [1, 4]: 1.0 fold | Average Induction, U27655 Human RGP3 mRNA [1, 4]: 1.2 fold | Average Induction, U53831 Homo sapiens interferon regulatory factor 7B [1, 4]: 1.1 fold | Average Induction, U58334 Human Bcl2, p53 binding protein Bbp/53BP2 (BBP/53BP2) mRNA [1, 4]: 1.1 fold | Average Induction, U65093 Human msg1-related gene 1 (mrg1) mRNA [1, 4]: 1.3 fold | Average Induction, W26851 17b12 Homo sapiens cDNA [1, 4]: 1.2 fold | Average Induction, Y13115 Homo sapiens mRNA for serine/threonine protein kinase SAK [1, 4]: 1.2 fold | Average Induction, Z25821 H.sapiens gene for mitochondrial dodecenoyl-CoA delta-isomerase [1, 4]: 1.1 fold | Average Induction, AB028069 Homo sapiens mRNA for activator of S phase Kinase [1, 5]: 2.0 fold | Average Induction, D38537 Human mRNA for protoporphyrinogen oxidase [1, 5]: 1.3 fold | Average Induction, M83667 Human NF-IL6-beta protein [1, 5]: 1.4 fold | Average Induction, U78082 Human RNA polymerase transcriptional regulation mediator (h-MED6) mRNA [1, 5]: 1.9 fold | Average Induction, U85267 Homo sapiens down syndrome candidate region 1 (DSCR1) gene [1, 5]: 1.6 fold | Induction of the MCP-1 transcript (microarray, text) ([1]; endothelial cells, 90 minutes): only induced by the PAR1 agonist | MCP-1 induction, time course (primary HUVEC): similarly induced
